For assay [1], the system named is HT-29 cells. Put plainly: Inhibition of cell proliferation (MTS), HT-29 cells. It is filed as cell-based. The following applies: Homo sapiens, HT-29, 72 h; for pIC50: HT-29 cells, 5000 cells/well, 72 h, MTS, absorbance 490 nm, read-out: HT29 IC50. On the procedure:
(§1) MTS testing kit was purchased from Promega. The DMEM, RPMI-1640 and Fetal bovine serum were purchased from Gibco. Dimethyl sulfoxide (DMSO) was purchased from Sigma.
(§2) To investigate whether a compound is able to inhibit the activity of MEK in cells, a mechanism-based assay using A-375 and HT-29 cell was developed. In this assay, inhibition of MEK was detected by the inhibition of A-375 and HT-29 cells proliferation. A-375 and HT-29 cells were cultured in culture flasks to 40-80% confluence respectively in DMEM and RPMI-1640 plus 10% fetal bovine serum. Cells were collected and plated onto 96-well plates at desired cell density (A-375: 3000 cells/well; HT-29: 5000 cells/well). Plates were incubated overnight at 37° C., with 5% CO2 to adhere. Compounds were added to the plates. The final compound concentrations were […], 12.35, 4.12, 1.37, 0.46 and 0.15 nM, respectively. Place plates at 37° C., with 5% CO2 for 72 h. 10 μl MTS were added to each well and incubate the plates for exactly 2 hours. Absorbance was measured at 490 nm. […] was calculated using GraphPad Prism 5.0.

Assay [2] relates to A-375 cells. Nature of the assay: Inhibition of cell proliferation (MTS), A-375 cells. The class given is cell-based. Particulars: Homo sapiens, A-375, 72 h; for pIC50: A-375 cells, 3000 cells/well, 72 h, MTS, absorbance 490 nm, read-out: A375 IC50. As for the experimental part: as §1, §2

pIC50: −log10 of the molar value. Read-outs that look alike come from different tables or passages of the source.

A word on the IC50: it is the concentration needed to halve the response being measured. Turning to `CC(=O)Nc1cccc(-c2nn(C3CC3)c(=O)c3c(Nc4ccc(I)cc4F)c(F)c(=O)n(C)c23)c1` [Example 1, N-(3-(6-cyclopropyl-3-fluoro-4-(2-fluoro-4-iodophenylamino)-1-methyl-2,5-dioxo-1,2,5,6-tetrahydropyrido[2,3-d]pyridazin-8-yl)phenyl)acetamide], the IC50 in assay [1] (read-out: HT29 IC50 (nM)) was found to be 2.4 nM; in assay [2] (read-out: A375 IC50 (nM)) it was 1.2 nM. As usually defined, the pIC50 is the negative decadic logarithm of the IC50, by convention in mol/L. `CCC(=O)Nc1cccc(-c2nn(C3CC3)c(=O)c3c(Nc4ccc(I)cc4F)c(F)c(=O)n(C)c23)c1` [Example 2, N-(3-(6-cyclopropyl-3-fluoro-4-(2-fluoro-4-iodophenylamino)-1-methyl-2,5-dioxo-1,2,5,6-tetrahydropyrido[2,3-d]pyridazin-8-yl)phenyl)propionamide]: the negative logarithm of the IC50 (pIC50) is 7.86 in assay [1] and 7.97 in assay [2]. For `CC(C)C(=O)Nc1cccc(-c2nn(C3CC3)c(=O)c3c(Nc4ccc(I)cc4F)c(F)c(=O)n(C)c23)c1` [Example 3, N-(3-(6-cyclopropyl-3-fluoro-4-(2-fluoro-4-iodophenylamino)-1-methyl-2,5-dioxo-1,2,5,6-tetrahydropyrido[2,3-d]pyridazin-8-yl)phenyl)isobutyramide], in that order: 7.38 and 7.82. For `Cn1c(=O)c(F)c(Nc2ccc(I)cc2F)c2c(=O)n(C3CC3)nc(-c3cccc(NC(=O)C4CC4)c3)c21` [Example 4, N-(3-(6-cyclopropyl-3-fluoro-4-(2-fluoro-4-iodophenylamino)-1-methyl-2,5-dioxo-1,2,5,6-tetrahydropyrido[2,3-d]pyridazin-8-yl)phenyl)cyclopropanecarboxamide], in that order: 7.38 and 7.58. In the same order, the values of `Cn1c(=O)c(F)c(Nc2ccc(I)cc2F)c2c(=O)n(C3CC3)nc(-c3cccc(NS(C)(=O)=O)c3)c21` [Example 5, N-(3-(6-cyclopropyl-3-fluoro-4-(2-fluoro-4-iodophenylamino)-1-methyl-2,5-dioxo-1,2,5,6-tetrahydropyrido[2,3-d]pyridazin-8-yl)phenyl)methanesulfonamide] are 8.29 and 8.40. For `CCS(=O)(=O)Nc1cccc(-c2nn(C3CC3)c(=O)c3c(Nc4ccc(I)cc4F)c(F)c(=O)n(C)c23)c1` [Example 6, N-(3-(6-cyclopropyl-3-fluoro-4-(2-fluoro-4-iodophenylamino)-1-methyl-2,5-dioxo-1,2,5,6-tetrahydropyrido[2,3-d]pyridazin-8-yl)phenyl)ethanesulfonamide], the pIC50 in assay [1] was 8.19; in assay [2], 8.32.

Regarding `CC(C)S(=O)(=O)Nc1cccc(-c2nn(C3CC3)c(=O)c3c(Nc4ccc(I)cc4F)c(F)c(=O)n(C)c23)c1` [Example 7, N-(3-(6-cyclopropyl-3-fluoro-4-(2-fluoro-4-iodophenylamino)-1-methyl-2,5-dioxo-1,2,5,6-tetrahydropyrido[2,3-d]pyridazin-8-yl)phenyl)propane-2-sulfonamide], the negative-log IC50 (pIC50) in assay [1] was 8.39; in assay [2], 8.46. For `C=CCn1nc(-c2cccc(NS(=O)(=O)C3CC3)c2)c2c(c(Nc3ccc(I)cc3F)c(F)c(=O)n2C)c1=O` [Example 8, N-(3-(6-allyl-3-fluoro-4-(2-fluoro-4-iodophenylamino)-1-methyl-2,5-dioxo-1,2,5,6-tetrahydropyrido[2,3-d]pyridazin-8-yl)phenyl)cyclopropanesulfonamide], in that order: 8.27 and 8.27. In the same order, the values of `CC(=O)Nc1cccc(-c2nn(C(C)C)c(=O)c3c(Nc4ccc(I)cc4F)c(F)c(=O)n(C)c23)c1` [Example 9, N-(3-(3-fluoro-4-(2-fluoro-4-iodophenylamino)-6-isopropyl-1-methyl-2,5-dioxo-1,2,5,6-tetrahydropyrido[2,3-d]pyridazin-8-yl)phenyl)acetamide] are 7.33 and 7.36. Regarding `CCC(=O)Nc1cccc(-c2nn(C(C)C)c(=O)c3c(Nc4ccc(I)cc4F)c(F)c(=O)n(C)c23)c1` [Example 10, N-(3-(3-fluoro-4-(2-fluoro-4-iodophenylamino)-6-isopropyl-1-methyl-2,5-dioxo-1,2,5,6-tetrahydropyrido[2,3-d]pyridazin-8-yl)phenyl)propionamide], the negative-log IC50 (pIC50) in assay [1] was 7.22; in assay [2], 7.21.

As to `CC(C)C(=O)Nc1cccc(-c2nn(C(C)C)c(=O)c3c(Nc4ccc(I)cc4F)c(F)c(=O)n(C)c23)c1` [Example 11, N-(3-(3-fluoro-4-(2-fluoro-4-iodophenylamino)-6-isopropyl-1-methyl-2,5-dioxo-1,2,5,6-tetrahydropyrido[2,3-d]pyridazin-8-yl)phenyl)isobutyramide], the pIC50 in assay [1] was 6.74; in assay [2], 6.70. As to `CC(C)n1nc(-c2cccc(NC(=O)C3CC3)c2)c2c(c(Nc3ccc(I)cc3F)c(F)c(=O)n2C)c1=O` [Example 12, N-(3-(3-fluoro-4-(2-fluoro-4-iodophenylamino)-6-isopropyl-1-methyl-2,5-dioxo-1,2,5,6-tetrahydropyrido[2,3-d]pyridazin-8-yl)phenyl)cyclopropanecarboxamide], the pIC50 in assay [1] was 6.72; in assay [2], 6.70. In the same order, the values of `CC(C)n1nc(-c2cccc(NS(C)(=O)=O)c2)c2c(c(Nc3ccc(I)cc3F)c(F)c(=O)n2C)c1=O` [Example 13, N-(3-(3-fluoro-4-(2-fluoro-4-iodophenylamino)-6-isopropyl-1-methyl-2,5-dioxo-1,2,5,6-tetrahydropyrido[2,3-d]pyridazin-8-yl)phenyl)methanesulfonamide] are 7.06 and 7.58. In the same order, the values of `CCS(=O)(=O)Nc1cccc(-c2nn(C(C)C)c(=O)c3c(Nc4ccc(I)cc4F)c(F)c(=O)n(C)c23)c1` [Example 14, N-(3-(3-fluoro-4-(2-fluoro-4-iodophenylamino)-6-isopropyl-1-methyl-2,5-dioxo-1,2,5,6-tetrahydropyrido[2,3-d]pyridazin-8-yl)phenyl)ethanesulfonamide] are 8.19 and 7.71.

For `CC(C)n1nc(-c2cccc(NS(=O)(=O)C(C)C)c2)c2c(c(Nc3ccc(I)cc3F)c(F)c(=O)n2C)c1=O` [Example 15, N-(3-(3-fluoro-4-(2-fluoro-4-iodophenylamino)-6-isopropyl-1-methyl-2,5-dioxo-1,2,5,6-tetrahydropyrido[2,3-d]pyridazin-8-yl)phenyl)propane-2-sulfonamide], the negative-log IC50 (pIC50) in assay [1] was 6.82; in assay [2], 7.46. For `CC(C)n1nc(-c2cccc(NS(=O)(=O)C3CC3)c2)c2c(c(Nc3ccc(I)cc3F)c(F)c(=O)n2C)c1=O` [Example 16, N-(3-(3-fluoro-4-(2-fluoro-4-iodophenylamino)-6-isopropyl-1-methyl-2,5-dioxo-1,2,5,6-tetrahydropyrido[2,3-d]pyridazin-8-yl)phenyl)cyclopropanesulfonamide], in that order: 7.50 and 7.71. For `CCCn1nc(-c2cccc(NS(=O)(=O)C3CC3)c2)c2c(c(Nc3ccc(I)cc3F)c(F)c(=O)n2C)c1=O` [Example 17, N-(3-(3-fluoro-4-(2-fluoro-4-iodophenylamino)-1-methyl-2,5-dioxo-6-propyl-1,2,5,6-tetrahydropyrido[2,3-d]pyridazin-8-yl)phenyl)cyclopropanesulfonamide], in that order: 7.67 and 7.89. In the same order, the values of `COCCn1nc(-c2cccc(NS(=O)(=O)C3CC3)c2)c2c(c(Nc3ccc(I)cc3F)c(F)c(=O)n2C)c1=O` [Example 18, N-(3-(3-fluoro-4-(2-fluoro-4-iodophenylamino)-6-(2-methoxyethyl)-1-methyl-2,5-dioxo-1,2,5,6-tetrahydropyrido[2,3-d]pyridazin-8-yl)phenyl)cyclopropanesulfonamide] are 7.63 and 7.52. On to `Cn1c(=O)c(F)c(Nc2ccc(I)cc2F)c2c(=O)n(CCF)nc(-c3cccc(NS(=O)(=O)C4CC4)c3)c21` [Example 19, N-(3-(3-fluoro-4-(2-fluoro-4-iodophenylamino)-6-(2-fluoroethyl)-1-methyl-2,5-dioxo-1,2,5,6-tetrahydropyrido[2,3-d]pyridazin-8-yl)phenyl)cyclopropanesulfonamide], for which the negative-log IC50 (pIC50) was 8.38 in assay [1] and 8.62 in assay [2].

As for `C=CCn1nc(-c2cccc(NC(C)=O)c2)c2c(c(Nc3ccc(I)cc3F)c(Cl)c(=O)n2C)c1=O` [Example 38, N-(3-(6-allyl-3-chloro-4-(2-fluoro-4-iodophenylamino)-1-methyl-2,5-dioxo-1,2,5,6-tetrahydropyrido[2,3-d]pyridazin-8-yl)phenyl)acetamide], the pIC50 in assay [2] is 7.68. `CC(=O)Nc1cccc(-c2nn(CC(O)CO)c(=O)c3c(Nc4ccc(I)cc4F)c(Cl)c(=O)n(C)c23)c1` (stereo not shown) [Example 39, N-(3-(3-chloro-6-(2,3-dihydroxypropyl)-4-((2-fluoro-4-iodophenyl)amino)-1-methyl-2,5-dioxo-1,2,5,6-tetrahydropyrido[2,3-d]pyridazin-8-yl)phenyl)acetamide]: the pIC50 in assay [2] was 7.64.

The record behind these values is patent publication US10022374B2, “Certain protein kinase inhibitors” (Shanghai Fochon Pharmaceutical Co., Ltd., priority 2013, dated 2018).
